ChEMBL document CHEMBL3751717, “Benzylamide antagonists of protease activated receptor 2 with anti-inflammatory activity” (Bioorg Med Chem Lett, 2016)
pIC50: −log10 of the molar value. Activity calls are given as the source filed them. The calls are words filed in the database; no cut-off is given here.

Columns and labels:
[1] = target: Proteinase-activated receptor 2 (Homo sapiens) (UniProt P55085); experiment: Antagonist activity at PAR2 in human HT-29 cells assessed as inhibition of 2f-LIGRLO-NH2-induced ca2+ release at 1 uM preincubated for 15 mins measured after 1 hr by FLIPR assay; format: cell-based
[2] = target: Proteinase-activated receptor 2 (Homo sapiens) (UniProt P55085); experiment: Agonist activity at PAR2 in human HT-29 cells assessed as induction of ca2+ release at 10 uM after 1 hr by FLIPR assay relative to 2f-LIGRLO-NH2; format: cell-based
[3] = target: T1, Proteinase-activated receptor 2 (Homo sapiens, UniProt P55085); experiment: Antagonist activity at PAR2 in human HT-29 cells assessed as inhibition of 2f-LIGRLO-NH2-induced ca2+ release preincubated for 15 mins measured after 1 hr by FLIPR assay; format: cell-based; details: for pIC50: read-out: IC50; for IC50: read-out: pIC50 (converted)
T1 sequence (P55085 whole entry): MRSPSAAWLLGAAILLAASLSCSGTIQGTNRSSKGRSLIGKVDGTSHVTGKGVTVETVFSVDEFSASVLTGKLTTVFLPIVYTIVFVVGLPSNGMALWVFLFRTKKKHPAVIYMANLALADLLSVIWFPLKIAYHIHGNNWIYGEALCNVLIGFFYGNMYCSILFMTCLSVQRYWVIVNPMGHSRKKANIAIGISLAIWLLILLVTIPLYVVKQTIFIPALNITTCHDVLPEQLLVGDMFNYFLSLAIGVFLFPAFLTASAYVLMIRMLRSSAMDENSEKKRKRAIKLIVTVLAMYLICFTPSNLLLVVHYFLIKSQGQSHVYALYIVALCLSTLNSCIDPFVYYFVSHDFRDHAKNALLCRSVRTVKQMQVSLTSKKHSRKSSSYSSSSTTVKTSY

[4] = tested on: Rattus norvegicus; experiment: Antiinflammatory activity in Wistar rat assessed as inhibition of 2f-LIGRLO-NH2-induced paw edema at 5 mg/kg, sc dosed 120 mins before 2f-LIGRLO-NH2 stimulation; format: functional, organism-based
[5] = Cmax in Wistar rat at 10 mg/kg, po; format: ADME, organism-based; design: dose 10 mg/kg, route oral; details: in vivo
[6] = target: T2, Proteinase-activated receptor 1 (Homo sapiens) (UniProt P25116); experiment: Antagonist activity at PAR1 in human PC3 cells assessed as inhibition of TFLLR-induced ca2+ release at 100 uM preincubated for 15 mins measured after 1 hr by FLIPR assay; format: cell-based; details: PC-3
T2 sequence (whole entry): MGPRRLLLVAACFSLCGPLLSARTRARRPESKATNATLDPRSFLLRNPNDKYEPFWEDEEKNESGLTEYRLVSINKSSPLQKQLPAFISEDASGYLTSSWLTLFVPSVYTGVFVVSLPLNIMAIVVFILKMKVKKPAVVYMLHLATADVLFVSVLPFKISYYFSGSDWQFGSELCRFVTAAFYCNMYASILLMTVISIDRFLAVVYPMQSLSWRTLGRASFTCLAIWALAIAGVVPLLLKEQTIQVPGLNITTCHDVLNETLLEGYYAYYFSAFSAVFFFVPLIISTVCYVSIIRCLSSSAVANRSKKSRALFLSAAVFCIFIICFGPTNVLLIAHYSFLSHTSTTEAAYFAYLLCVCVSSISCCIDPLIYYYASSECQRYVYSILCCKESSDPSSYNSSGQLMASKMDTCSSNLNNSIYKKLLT

[7] = Tmax in Wistar rat at 10 mg/kg, po; format: ADME, organism-based; details: in vivo
[8] = tested on: Rattus norvegicus; experiment: Antiinflammatory activity in Wistar rat assessed as inhibition of 2f-LIGRLO-NH2-induced paw edema at 10 mg/kg, po dosed 120 mins before 2f-LIGRLO-NH2 stimulation; format: functional, organism-based
[9] = target: T1, Proteinase-activated receptor 2; experiment: Antagonist activity at PAR2 in human HT-29 cells assessed as inhibition of trypsin-induced ca2+ release preincubated for 15 mins measured after 1 hr by FLIPR assay; format: cell-based
[10] = tested on: HTEC; experiment: Antiinflammatory activity in human HTEC cells assessed as inhibition of 2f-LIGRLO-NH2-induced TNFalpha production at 5 to 10 uM after 24 hrs by ELISA; format: functional, cell-based
[11] = AUC (0 to 6 hrs) in Wistar rat at 10 mg/kg, po; format: ADME, organism-based; design: time < 6 hr, dose 10 mg/kg, route oral; details: in vivo
[12] = target: T2, Proteinase-activated receptor 1 (Homo sapiens); experiment: Antagonist activity at PAR1 in human PC3 cells assessed as inhibition of alpha-thrombin-induced ca2+ release at 100 uM preincubated for 15 mins measured after 1 hr by FLIPR assay; format: cell-based; details: PC-3
[13] = target: T1, Proteinase-activated receptor 2; experiment: Displacement of europium-labeled 2f-LIGRLO-NH2 from human PAR2 expressed in CHO cells after 1 to 2 hrs; format: cell-based
[14] = tested on: HTEC; experiment: Antiinflammatory activity in human HTEC cells assessed as inhibition of 2f-LIGRLO-NH2-induced IL-6 production at 5 to 10 uM after 24 hrs by ELISA; format: functional, cell-based

SMILES	inhibition [1]	Activity [2]	also measured
CC[C@H](C)[C@H](NC(=O)[C@H](CC1CCCCC1)NC(=O)c1ccno1)C(=O)NCc1ccccc1F	93%	40%	–
CC[C@H](C)[C@H](NC(=O)[C@H](CC1CCCCC1)NC(=O)c1ccno1)C(=O)NCc1ccc(F)cc1	82%	28%	–
CC[C@H](C)[C@H](NC(=O)[C@H](CC1CCCCC1)NC(=O)c1ccno1)C(=O)NCc1ccccc1-c1ccccc1	0%	1%	–
CC[C@H](C)[C@H](NC(=O)[C@H](CC1CCCCC1)NC(=O)c1ccno1)C(=O)NCc1ccccn1	–	83%	–
CC[C@H](C)[C@H](NC(=O)[C@H](CC1CCCCC1)NC(=O)c1ccno1)C(=O)NCc1ccccc1C	74%	29%	–
CC[C@H](C)[C@H](NC(=O)[C@H](CC1CCCCC1)NC(=O)c1ccno1)C(=O)N(C)Cc1ccccc1	7%	7%	–
CC[C@H](C)[C@H](NC(=O)[C@H](CC1CCCCC1)NC(=O)c1ccno1)C(=O)NCc1cccc(-c2ccccc2)c1	17%	5%	–
CC[C@H](C)[C@H](NC(=O)[C@H](CC1CCCCC1)NC(=O)c1ccno1)C(=O)NCc1ccccc1OC(C)C	67%	38%	–
CC[C@H](C)[C@H](NC(=O)[C@H](CC1CCCCC1)NC(=O)c1ccno1)C(=O)NCc1ccc(-c2ccccc2)cc1	0%	6%	–
CC[C@H](C)[C@H](NC(=O)[C@H](CC1CCCCC1)NC(=O)c1ccno1)C(=O)NCc1ccc(OC)cc1	95%	51%	–
CC[C@H](C)[C@H](NC(=O)[C@H](CC1CCCCC1)NC(=O)c1ccno1)C(=O)NCc1ccccc1Cl	85%	43%	–
CC[C@H](C)[C@H](NC(=O)[C@H](CC1CCCCC1)NC(=O)c1ccno1)C(=O)NCc1ccncc1	–	87%	–
CC[C@H](C)[C@H](NC(=O)[C@H](CC1CCCCC1)NC(=O)c1ccno1)C(=O)NCc1cccc(OC)c1	98%	32%	–
CC[C@H](C)[C@H](NC(=O)[C@H](CC1CCCCC1)NC(=O)c1ccno1)C(=O)NCc1ccccc1C(F)(F)F	57%	42%	–
CC[C@H](C)[C@H](NC(=O)[C@H](CC1CCCCC1)NC(=O)c1ccno1)C(=O)NCc1ccccc1[N+](=O)[O-]	94%	45%	–
CCC(C)Oc1ccccc1CNC(=O)[C@@H](NC(=O)[C@H](CC1CCCCC1)NC(=O)c1ccno1)[C@@H](C)CC (stereo partly specified)	53%	6%	pIC50 [3]: 6.00; IC50 [3]: 1260 nM
CC[C@H](C)[C@H](NC(=O)[C@H](CC1CCCCC1)NC(=O)c1ccno1)C(=O)NCc1ccccc1OC	100%	20%	inhibition [4]: Active; Cmax [5]: 510 nM; inhibition [6]: inactive; Tmax [7]: 2.63 h; inhibition [8]: inactive; IC50 ([9]; read-out: pIC50 (converted)): 2000 nM; inhibition [10]: Active; AUC(0-t) at 6 h [11]: 444 ng·h/mL; inhibition [12]: inactive; pIC50 [3]: 6.30; pIC50 [13]: 5.35; inhibition [14]: Active

SMILES	inhibition [1]	Activity [2]	also measured
CC[C@H](C)[C@H](NC(=O)[C@H](CC1CCCCC1)NC(=O)c1ccno1)C(=O)NCc1ccccc1	76%	23%	–
CC[C@H](C)[C@H](NC(=O)[C@H](CC1CCCCC1)NC(=O)c1ccno1)C(=O)N(C)Cc1ccccc1OC	27%	20%	–
CCCOc1ccccc1CNC(=O)[C@@H](NC(=O)[C@H](CC1CCCCC1)NC(=O)c1ccno1)[C@@H](C)CC	34%	1%	–
CC[C@H](C)[C@H](NC(=O)[C@H](CC1CCCCC1)NC(=O)c1ccno1)C(=O)N1CCC2(C=Cc3ccccc32)CC1	54%	16%	inhibition [4]: Active; Cmax [5]: 1970 nM; inhibition [6]: inactive; Tmax [7]: 2.78 h; inhibition [8]: Active; pIC50 ([9]; read-out: IC50): 5.02; AUC(0-t) at 6 h [11]: 3420 ng·h/mL; inhibition [12]: inactive; IC50 [3]: 1260 nM
CCOc1ccccc1CNC(=O)[C@@H](NC(=O)[C@H](CC1CCCCC1)NC(=O)c1ccno1)[C@@H](C)CC	71%	29%	–
CC[C@H](C)[C@H](NC(=O)[C@H](CC1CCCCC1)NC(=O)c1ccno1)C(=O)NCc1cccc(OC(F)(F)F)c1	18%	44%	–
CC[C@H](C)[C@H](NC(=O)[C@H](CC1CCCCC1)NC(=O)c1ccno1)C(=O)NCc1cccc2ccccc12	12%	2%	–
CC[C@H](C)[C@H](NC(=O)[C@H](CC1CCCCC1)NC(=O)c1ccno1)C(=O)NCc1ccc2c(c1)OCO2	84%	33%	–
CCCCOc1ccccc1CNC(=O)[C@@H](NC(=O)[C@H](CC1CCCCC1)NC(=O)c1ccno1)[C@@H](C)CC	8%	1%	–
CC[C@H](C)[C@H](NC(=O)[C@H](CC1CCCCC1)NC(=O)c1ccno1)C(=O)NC1C2CC3CC(C2)CC1C3 (stereo partly specified)	29%	26%	–
CC[C@H](C)[C@H](NC(=O)[C@H](CC1CCCCC1)NC(=O)c1ccno1)C(=O)NCCc1ccc(OC)c(OC)c1	32%	39%	–
CC[C@H](C)[C@H](NC(=O)[C@H](CC1CCCCC1)NC(=O)c1ccno1)C(=O)N(CC(C)C)CC(C)C	0%	1%	–
CC[C@H](C)[C@H](NC(=O)[C@H](CC1CCCCC1)NC(=O)c1ccno1)C(=O)NNc1ccccc1	33%	41%	–
CC[C@H](C)[C@H](NC(=O)[C@H](CC1CCCCC1)NC(=O)c1ccno1)C(=O)NCc1cccc(F)c1	74%	28%	–
CC[C@H](C)[C@H](NC(=O)[C@H](CC1CCCCC1)NC(=O)c1ccno1)C(=O)NCc1cccc2c1OCO2	90%	46%	–
CC[C@H](C)[C@H](NC(=O)[C@H](CC1CCCCC1)NC(=O)c1ccno1)C(=O)NCc1nc2ccccc2[nH]1	–	86%	–
